Source: PubChem BioAssay (NCI)
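Assay format: 96-well plates, 48-hour exposure. The concentration for full growth arrest is given as TGI.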

How the values were obtained:
Experiment in all cases: growth of human tumour cells (NCI), 48 h
[1] = test system: RXF 393 renal
[2] = test system: CCRF-CEM leukemia
[3] = test system: SR leukemia
[4] = test system: SK-MEL-28 melanoma
[5] = test system: OVCAR-3 ovarian
[6] = test system: SNB-75 CNS
[7] = test system: HOP-92 NSCLC
[8] = test system: HL-60(TB) leukemia
[9] = test system: K-562 leukemia
[10] = test system: LOX IMVI melanoma
[11] = test system: 786-0 renal
[12] = test system: U251 CNS
[13] = test system: OVCAR-5 ovarian
[14] = test system: HT29 colon
[15] = test system: HCT-15 colon
[16] = test system: M14 melanoma
[17] = test system: SF-539 CNS
[18] = test system: MDA-N
[19] = test system: OVCAR-8 ovarian
[20] = test system: SNB-19 CNS
[21] = test system: MDA-MB-435
[22] = test system: ACHN renal
[23] = test system: NCI-H226 lung
[24] = test system: NCI-H522 lung
[25] = test system: A549 NSCLC
[26] = test system: IGROV1 ovarian
[27] = test system: UACC-257 melanoma
[28] = test system: SN12C renal
[29] = test system: MALME-3M melanoma
[30] = test system: MCF7 breast
[31] = test system: OVCAR-4 ovarian
[32] = test system: SF-268 CNS
[33] = test system: MDA-MB-231 breast
[34] = test system: DU-145 prostate
[35] = test system: NCI-H23 lung
[36] = test system: HOP-62 NSCLC
[37] = test system: UO-31 renal
[38] = test system: NCI/ADR-RES ovarian
[39] = test system: A498 renal
[40] = test system: EKVX NSCLC
[41] = test system: MOLT-4 leukemia
[42] = test system: SF-295 CNS
[43] = test system: TK-10 renal
[44] = test system: SW-620 colon
[45] = test system: SK-MEL-5 melanoma
[46] = test system: HCT-116 colon
[47] = test system: CAKI-1 renal
[48] = test system: UACC-62 melanoma
[49] = test system: NCI-H460 lung
[50] = test system: RPMI-8226 leukemia
[51] = test system: SK-OV-3 ovarian
[52] = test system: PC-3 prostate
[53] = test system: KM12 colon
[54] = test system: HCC-2998 colon
[55] = test system: COLO 205 colon
[56] = test system: BT-549 breast
[57] = test system: HS 578T breast
[58] = test system: T-47D breast
[59] = test system: SK-MEL-2 melanoma
[60] = test system: KM20L2 colon
[61] = test system: LXFL 529 NSCLC
[62] = test system: M19-MEL melanoma
[63] = test system: DMS 114 small cell lung
[64] = test system: DMS 273 small cell lung
[65] = test system: DLD-1 colon
[66] = test system: XF 498 CNS

Cc1cc(C)n(CC(Cn2nc(C)cc2C)=C(/C(Cl)=C(/Cl)Nc2ccc([N+](=O)[O-])cc2)[N+](=O)[O-])n1
TGI [1]: 12.3 µM | TGI [2]: 2.48 µM | TGI [3]: 8.49 µM | TGI [4]: 29 µM | TGI [5]: 15.2 µM | TGI [6]: 14.3 µM | TGI [7]: 8.48 µM | TGI [8]: 4.3 µM | TGI [9]: 11.5 µM | TGI [10]: 6.06 µM | TGI [11]: 18.9 µM | TGI [12]: 13.5 µM | TGI [13]: 33.2 µM | TGI [14]: 11.3 µM | TGI [15]: > 31.5 µM | TGI [16]: 16.6 µM | TGI [17]: 9.27 µM | TGI [18]: 15.3 µM | TGI [19]: 14.6 µM | TGI [20]: 17.6 µM | TGI [21]: 8.95 µM | TGI [22]: 11.6 µM | TGI [23]: 49.4 µM | TGI [24]: 5.01 µM | TGI [25]: 13.3 µM | TGI [26]: 8.17 µM | TGI [27]: 12.3 µM | TGI [28]: 17.6 µM | TGI [29]: 13.4 µM | TGI [30]: 14.3 µM | TGI [31]: 3.4 µM | TGI [32]: 19.8 µM | TGI [33]: 25.5 µM | TGI [34]: 14 µM | TGI [35]: 8.03 µM | TGI [36]: 22.2 µM | TGI [37]: 6.76 µM | TGI [38]: > 32.8 µM | TGI [39]: 11.2 µM | TGI [40]: 13.8 µM | TGI [41]: 4.77 µM | TGI [42]: 20.9 µM | TGI [43]: 12.5 µM | TGI [44]: 17.7 µM | TGI [45]: 4.97 µM | TGI [46]: 14.3 µM | TGI [47]: 5.98 µM | TGI [48]: 15.4 µM | TGI [49]: 10.9 µM | TGI [50]: 5.12 µM | TGI [51]: 14.2 µM | TGI [52]: 12.7 µM | TGI [53]: 6.55 µM | TGI [54]: 11.7 µM | TGI [55]: 5.36 µM | TGI [56]: 15.7 µM | TGI [57]: 33.2 µM | TGI [58]: 17.3 µM | TGI [59]: 11.8 µM

Cc1cc(NCCCCCCCCNc2cc(C)nc3cc(N)ccc23)c2ccc(N)cc2n1
TGI [1]: > 100 µM | TGI [2]: 30.8 µM | TGI [3]: > 100 µM | TGI [4]: 48.3 µM | TGI [60]: 48.8 µM | TGI [5]: 37.4 µM | TGI [6]: 69.1 µM | TGI [8]: 4.88 µM | TGI [9]: 16.3 µM | TGI [10]: 40.1 µM | TGI [11]: 53.7 µM | TGI [12]: 24.3 µM | TGI [13]: > 100 µM | TGI [14]: 75 µM | TGI [15]: > 100 µM | TGI [16]: 35.6 µM | TGI [17]: 41.2 µM | TGI [19]: 52.1 µM | TGI [20]: 45.4 µM | TGI [22]: > 100 µM | TGI [23]: 93.3 µM | TGI [24]: 30.8 µM | TGI [25]: > 100 µM | TGI [27]: 35.5 µM | TGI [61]: 45.2 µM | TGI [28]: > 100 µM | TGI [31]: > 100 µM | TGI [32]: > 100 µM | TGI [62]: 45.3 µM | TGI [63]: 30.8 µM | TGI [64]: 28.9 µM | TGI [35]: 52.8 µM | TGI [36]: 75.1 µM | TGI [37]: > 100 µM | TGI [39]: > 100 µM | TGI [40]: 61 µM | TGI [41]: > 100 µM | TGI [42]: 42 µM | TGI [43]: > 100 µM | TGI [65]: > 100 µM | TGI [45]: 34.8 µM | TGI [47]: > 100 µM | TGI [48]: 38.4 µM | TGI [49]: 49.5 µM | TGI [50]: > 100 µM | TGI [51]: > 100 µM | TGI [53]: 37.8 µM | TGI [54]: 38.8 µM | TGI [55]: 31.2 µM | TGI [59]: 40.4 µM

COP(=O)(OC)C(=O)N1N(c2ccc([N+](=O)[O-])cc2)C(=O)C(C)NC1(NNc1ccc([N+](=O)[O-])cc1)P(=O)(OC)OC (stereo not given)
TGI [2]: > 100 µM | TGI [3]: > 100 µM | TGI [4]: > 100 µM | TGI [60]: > 100 µM | TGI [5]: > 100 µM | TGI [6]: > 100 µM | TGI [7]: > 100 µM | TGI [8]: > 100 µM | TGI [9]: > 100 µM | TGI [10]: > 100 µM | TGI [11]: > 100 µM | TGI [12]: > 100 µM | TGI [13]: > 100 µM | TGI [15]: > 100 µM | TGI [16]: > 100 µM | TGI [17]: > 100 µM | TGI [19]: > 100 µM | TGI [20]: > 100 µM | TGI [22]: > 100 µM | TGI [23]: > 100 µM | TGI [24]: > 100 µM | TGI [25]: > 100 µM | TGI [26]: > 100 µM | TGI [27]: > 100 µM | TGI [61]: > 100 µM | TGI [28]: > 100 µM | TGI [29]: > 100 µM | TGI [31]: > 100 µM | TGI [32]: > 100 µM | TGI [62]: > 100 µM | TGI [63]: > 100 µM | TGI [64]: > 100 µM | TGI [35]: > 100 µM | TGI [36]: > 100 µM | TGI [66]: > 100 µM | TGI [37]: > 100 µM | TGI [39]: > 100 µM | TGI [40]: > 100 µM | TGI [41]: > 100 µM | TGI [43]: > 100 µM | TGI [65]: > 100 µM | TGI [44]: > 100 µM | TGI [45]: > 100 µM | TGI [46]: > 100 µM | TGI [47]: > 100 µM | TGI [48]: > 100 µM | TGI [49]: > 100 µM | TGI [50]: > 100 µM | TGI [53]: > 100 µM | TGI [54]: > 100 µM | TGI [55]: > 100 µM | TGI [59]: > 100 µM

C=CCN(c1cc(OCc2ccccc2)c2[nH]cc(C)c2c1)S(C)(=O)=O
TGI [1]: 71.4 µM | TGI [2]: > 100 µM | TGI [3]: > 100 µM | TGI [4]: > 100 µM | TGI [5]: > 100 µM | TGI [6]: 55.6 µM | TGI [7]: > 100 µM | TGI [8]: > 100 µM | TGI [9]: > 100 µM | TGI [10]: > 100 µM | TGI [11]: > 100 µM | TGI [12]: > 100 µM | TGI [13]: > 100 µM | TGI [14]: > 100 µM | TGI [15]: > 100 µM | TGI [16]: > 100 µM | TGI [17]: > 100 µM | TGI [18]: > 100 µM | TGI [19]: > 100 µM | TGI [20]: > 100 µM | TGI [21]: > 100 µM | TGI [22]: > 100 µM | TGI [23]: > 100 µM | TGI [24]: > 100 µM | TGI [25]: > 100 µM | TGI [26]: > 100 µM | TGI [27]: > 100 µM | TGI [28]: > 100 µM | TGI [29]: 88.7 µM | TGI [30]: > 100 µM | TGI [31]: > 100 µM | TGI [32]: > 100 µM | TGI [33]: > 100 µM | TGI [34]: > 100 µM | TGI [35]: > 100 µM | TGI [36]: > 100 µM | TGI [37]: > 100 µM | TGI [38]: > 100 µM | TGI [39]: 90.9 µM | TGI [40]: 67.9 µM | TGI [41]: > 100 µM | TGI [42]: > 100 µM | TGI [43]: > 100 µM | TGI [44]: > 100 µM | TGI [45]: > 100 µM | TGI [46]: > 100 µM | TGI [47]: > 100 µM | TGI [48]: > 100 µM | TGI [49]: > 100 µM | TGI [50]: > 100 µM | TGI [51]: > 100 µM | TGI [52]: > 100 µM | TGI [53]: > 100 µM | TGI [54]: > 100 µM | TGI [55]: > 100 µM | TGI [56]: > 100 µM | TGI [57]: > 100 µM | TGI [58]: 60.6 µM | TGI [59]: > 100 µM
